According to US20080155704A1, “Methods and Compositions for Determining in vivo Activity of BiP” (King's College London, priority 2006, published 2008):

How the values were obtained:
[1] = tested on: splenocytes and lymph node cells; assay: Intravenous injection of BiP into DBA mice, splenocytes and lymph node cells analysed; type: in vivo, mouse
Protocol: The biomarkers were investigated in two situations: 1) when 50.10^6 human peripheral blood mononuclear cells were injected intraperitoneally, with or without BiP (100 μg), into a mouse and the cells were harvested from the peritoneum 11 days later; or (2) BiP (200 μg) was injected intravenously into a mouse and the spleens and lymph nodes removed 11 days later.
Mice were sacrificed at the end of the experiment and the spleens and lymph nodes removed. The spleens and lymph nodes were then gently pushed through a fine mesh to produce a single cell suspension. The cells were then either set up in culture or stained as for human cells following the protocol below.
IF staining of mouse cells was as described for human cells above.
Mice were given a single dose of BiP and left for 11 days before they were sacrificed and their spleens and lymph nodes removed for analysis. The splenocytes and lymph node cells were pooled and used in immunofluorescence and flow cytometry studies. They were also set up in a simple recall antigen proliferation study to check that BiP had been successfully administered at time-point zero.
Cells were examined for: CD3, CD4, CD8, CD25, CD122, CCR4, intracellular CTLA-4 and cells actively producing IL-10 and interferon (IFN)γ.
Thus reduction of IFN (decreased IFN production) is an excellent marker of BiP function in vivo.

[2] = tested on: IL-8 gene; assay: Affymetrix gene array of BiP treated monocytes; type: cell-based, human; conditions: monocytes cultured with BiP for 24 h compared with unstimulated monocytes
Description: This was confirmed in two Affymetrix™ gene arrays and also in an inflammatory cytokine gene array.
The transcription profiles of the BiP stimulated and unstimulated MO were generated using the Human GeneChip U95Av2 which simultaneously measures 12500 gene transcripts. To identify genes differentially expressed in the presence of BiP, comparisons were made between the transcription profiles obtained from the MO using the analysis software dChip version 1.2 (32).

[3] = tested on: autologous responder T cells; assay: Regulatory T cell activity after co-culture with DC(BiP): responder T cell proliferation to anti-CD3; type: cell-based, human
Protocol: FIG. 12: Co-culture with BiP-treated dendritic cells (DC) leads T cells to have regulatory function. After 4d pre-incubation with either autologous or allogeneic DC, or DC(BiP), T cells were washed and set up in autologous cultures with irradiated peripheral blood mononuclear cells (PBMC) and responder T cells (1:1:1 ratio) (105 cells each/well) in the presence or absence of anti-CD3 antibody (1/2000 dilution). […] (B) a representative experiment showing an autologous experiment using Δ counts per minute (Δcpm) (stimulated-unstimulated cpm) following stimulation with anti-CD3 antibody to irradiated PBMC (irMC) or responder T cells (rT) alone and cultures with irMC+rT+T cells prestimulated (pT) by autologous DC populations as indicated; (C) mean ±standard deviation of unstimulated and stimulated cultures from a representative experiment where autologous irMC+rT+pT, previously cocultured with allogeneic DC populations as indicated, were present in ratio 1:1:1.
Purified T cells (>95% T cells) (2.10^6/well) either autologous or allogeneic were cultured in the absence or presence of irradiated DC populations in 24-well flat-bottomed plates at a IDC: 10 T cell ratio for 4 days. […]

[4] = tested on: T cells; assay: Direct effect of BiP on T cells / PBMC: marker expression; type: cell-based, human
Protocol: CCR4 and CCR5 expression by T cells.
Immunofluorescent staining was performed as follows when required. Cells were suspended in immunofluorescent buffer (IF) (PBS/0.1% BSA/0.05% azide) washed and incubated for 10 mins on ice with normal human serum. After washing twice in IF buffer, saturating concentrations of fluorescein isothiocyanate (FITC)-, phycoerythrin (PE) or peridium chlorophyll (Per-CP)-conjugated monoclonal antibodies (mAb) recognizing human CD14, CD86, CD80, HLA-DR, CD11c, CD1a, CD83, CD40 and CD85j, (all from Becton Dickinson/PharMingen, Oxford, UK) were added singly or in combination, as stated in the text, to cells for 20 mins on ice. Cells were then washed twice in IF buffer and analysed. Isotype controls, IgG1 and IgG2a (Becton Dickinson, Oxford, UK) were used in parallel.
Another group of regulatory T cells recently described are characterised by the expression of CD8CD122.

[5] = BiP 200 μg/mouse i.v., 11 days, n=3

BiP: 78 kD endoplasmic reticulum chaperone protein as disclosed in WO 00/21995; recombinant human protein
intracellular CTLA-4 ([1]; BiP 200 μg/mouse i.v., 11 days): Increased intracellular CTLA-4 | IL-10 producing cells [1, 5]: 6.1±1.3% | cells producing IFN gamma after stimulation by concanavalin A [1, 5]: 3.9±1.7% | % of CD8CD122+ cells ([1]; BiP 200 μg/mouse i.v., 11 days, pooled splenocytes and lymph node cells, n=3): 26.3±3.7% | IFN production by cells cultured overnight with con A ([1]; cells from mice given BiP 11 days previously (FIG. 5)): significant reduction in IFN production | IL-8 gene expression [2]: downregulated the IL-8 gene | % inhibition of responder T cell proliferation to anti-CD3 antibody ([3]; T cells from 4d co-culture with allogeneic DC(BiP), n=3): 28.7±13.3 % inhibition | % inhibition of responder T cell proliferation to anti-CD3 antibody ([3]; T cells from 4d co-culture with autologous DC(BiP), n=5): 63.8±13.7 % inhibition | CCR5 expression by T cells ([4]; PBMC incubated with BiP for four days (FIG. 4)): slightly downregulated | CCR4 expression by T cells ([4]; PBMC incubated with BiP for four days, three experiments (FIG. 4)): significantly raised | CD8CD122 expression ([4]; T cells after 7 days incubation with BiP, n=3): 75.6%±23.5%
